Laboratory results published in patent publication US8802597B2, “Herbicidal pyrimidines” (E I du Pont de Nemours and Company, priority 2003, dated 2014).
Like-named read-outs stand apart in the source and are kept apart here.

Columns and labels:
Assay type in all cases: in vivo
[1] = test system: junglerice (Echinochloa colona); assay: Test E flooded paddy water application; details: Flood, 21 days, scale 0 to 100 (0 no effect, 100 complete control)
Summary of the method: (§1)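 Greenhouse pots of Tama silt loam with weeds and rice at 2.0–2.5-leaf stage, flooded to 3 cm; compounds applied directly into paddy water, depth maintained. Visual rating versus untreated controls after 21 days, 0 (no effect) to 100 (complete control); 29.5/26.7 °C, 16-h photoperiod.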

[2] = test system: transplanted rice seedlings (Oryza sativa cv. ‘Japonica-M202’); assay: Test E flooded paddy water application; details: Flood, 21 days, scale 0 to 100 (0 no effect, 100 complete control)
Summary of the method: as §1

[3] = test system: purple redstem (Ammannia coccinea); assay: Test E flooded paddy water application; details: Flood, 21 days, scale 0 to 100 (0 no effect, 100 complete control)
Summary of the method: as §1

[4] = test system: early watergrass (Echinochloa oryzoides); assay: Test E flooded paddy water application; details: Flood, 21 days, scale 0 to 100 (0 no effect, 100 complete control)
Summary of the method: as §1

[5] = test system: smallflower umbrella sedge (Cyperus difformis); assay: Test E flooded paddy water application; details: Flood, 21 days, scale 0 to 100 (0 no effect, 100 complete control)
Summary of the method: as §1

[6] = test system: ducksalad (Heteranthera limosa); assay: Test E flooded paddy water application; details: Flood, 21 days, scale 0 to 100 (0 no effect, 100 complete control)
Summary of the method: as §1

[7] = test system: bearded (brdd.) sprangletop (Leptochloa fusca ssp. fascicularis); assay: Test E flooded paddy water application; details: Flood, 21 days, scale 0 to 100 (0 no effect, 100 complete control)
Summary of the method: as §1

[8] = test system: chickweed (Stellaria media); assay: Test C postemergence; details: Stellaria media, post-emergence
Summary of the method: (§2)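 Rating scale 0–100: 0 means no effect, 100 complete control; taken visually 12 to 14 days post-treatment versus controls. Pre- and postemergence greenhouse applications, postemergence at 1- to 4-leaf stage, non-phytotoxic solvent with surfactant as carrier.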

[9] = test system: woolly cupgrass (Eriochloa villosa); assay: Test C pre/postemergence; details: Eriochloa villosa; for pest or weed control at 31 g/ha: 31 g ai/ha; for pest or weed control at 62 g/ha: 62 g ai/ha; for pest or weed control at 125 g/ha: 125 g ai/ha
Summary of the method: as §2

[10] = test system: morningglory (Ipomoea coccinea); assay: Test C pre/postemergence; details: Ipomoea; for pest or weed control at 31 g/ha: 31 g ai/ha; for pest or weed control at 62 g/ha: 62 g ai/ha; for pest or weed control at 125 g/ha: 125 g ai/ha; for pest or weed control at 250 g/ha: 250 g ai/ha
Summary of the method: as §2

[11] = test system: eastern black nightshade (Solanum ptycanthum); assay: Test C pre/postemergence; details: Solanum, pre-emergence, Preemergence, read-out: Plant response rating, Nightshade
Summary of the method: as §2

[12] = post-emergence, Postemergence, scale 0 to 100 (0 no effect, 100 complete control), read-out: Cupgrass, Woolly plant response rating
[13] = pre-emergence, Preemergence, scale 0 to 100, 0 no effect, 100 complete control, read-out: Plant response rating, Cupgrass, Woolly
[14] = post-emergence, Postemergence, scale 0 to 100 (0 no effect, 100 complete control), read-out: Morningglory plant response rating
[15] = pre-emergence, Preemergence, scale 0 to 100, 0 no effect, 100 complete control, read-out: Plant response rating, Morningglory
[16] = pre-emergence, Preemergence, scale 0 to 100, read-out: Plant response rating, Morningglory

With CCOC(=O)c1nc(-c2ccc(Cl)cc2)nc(N)c1Cl [Compound 64, ethyl 6-amino-5-chloro-2-(4-chlorophenyl)-4-pyrimidinecarboxylate] the “Junglerice plant response rating” value ([1]; 32 g ai/ha) was 0, the “Junglerice plant response rating” value ([1]; 64 g ai/ha) was 0 and the “Junglerice plant response rating” value ([1]; 125 g ai/ha) was 0. For the same molecule, the “Junglerice plant response rating” value ([1]; 250 g ai/ha) was 0, the “Plant response rating, Junglerice” value ([1]; 16 g ai/ha) was 0 and the “Rice, Transplanted plant response rating” value ([2]; 32 g ai/ha) was 0. For the same molecule, the “Rice, Transplanted plant response rating” value ([2]; 64 g ai/ha) was 0, the “Rice, Transplanted plant response rating” value ([2]; 125 g ai/ha) was 10 and the “Rice, Transplanted plant response rating” value ([2]; 250 g ai/ha) was 10. For the same molecule, the “Plant response rating, Rice, Transplanted” value ([2]; 16 g ai/ha) was 0, the “Redstem plant response rating” value ([3]; 32 g ai/ha) was 60 and the “Redstem plant response rating” value ([3]; 64 g ai/ha) was 60. The “Redstem plant response rating” value ([3]; 125 g ai/ha) was 60, the “Redstem plant response rating” value ([3]; 250 g ai/ha) was 80 and the “Plant response rating, Redstem” value ([3]; 16 g ai/ha) was 20. For the same molecule, the “Watergrass, Early plant response rating” value ([4]; 32 g ai/ha) was 0, the “Watergrass, Early plant response rating” value ([4]; 64 g ai/ha) was 0 and the “Watergrass, Early plant response rating” value ([4]; 125 g ai/ha) was 0. For the same molecule, the “Watergrass, Early plant response rating” value ([4]; 250 g ai/ha) was 0, the “Plant response rating, Watergrass, Early” value ([4]; 16 g ai/ha) was 0 and the “Sedge, Umbrella plant response rating” value ([5]; 32 g ai/ha) was 80. For the same molecule, the “Sedge, Umbrella plant response rating” value ([5]; 64 g ai/ha) was 85, the “Sedge, Umbrella plant response rating” value ([5]; 125 g ai/ha) was 100 and the “Sedge, Umbrella plant response rating” value ([5]; 250 g ai/ha) was 100. For the same molecule, the “Plant response rating, Sedge, Umbrella” value ([5]; 16 g ai/ha) was 65, the “Ducksalad plant response rating” value ([6]; 32 g ai/ha) was 100 and the “Ducksalad plant response rating” value ([6]; 64 g ai/ha) was 100. The “Ducksalad plant response rating” value ([6]; 125 g ai/ha) was 100, the “Ducksalad plant response rating” value ([6]; 250 g ai/ha) was 100 and the “Plant response rating, Ducksalad” value ([6]; 16 g ai/ha) was 100. For the same molecule, the “Sprangletop, Brdd. plant response rating” value ([7]; 32 g ai/ha) was 0, the “Sprangletop, Brdd. plant response rating” value ([7]; 64 g ai/ha) was 0 and the “Sprangletop, Brdd. plant response rating” value ([7]; 125 g ai/ha) was 0. The “Sprangletop, Brdd. plant response rating” value ([7]; 250 g ai/ha) was 0, the “Plant response rating, Sprangletop, Brdd.” value ([7]; 16 g ai/ha) was 0 and the pest or weed control at 31 g/ha ([8]; 31 g ai/ha, read-out: Plant response rating (scale of 0 to 100), Chickweed) was 0%. For the same molecule, the pest or weed control at 62 g/ha ([8]; 62 g ai/ha, scale 0 to 100 (0 no effect, 100 complete control), read-out: Chickweed plant response rating) was 0%, the pest or weed control at 125 g/ha ([8]; 125 g ai/ha, scale 0 to 100 (0 no effect, 100 complete control), read-out: Chickweed plant response rating) was 0% and the pest or weed control at 250 g/ha ([8]; 250 g ai/ha, scale 0 to 100, read-out: Plant response rating, Chickweed) was 55%. It also gave a pest or weed control at 31 g/ha ([9]; post-emergence, Postemergence, read-out: Plant response rating (scale of 0 to 100), Cupgrass, Woolly) of 30%, a pest or weed control at 62 g/ha [9, 12] of 40% and a pest or weed control at 125 g/ha [9, 12] of 65%. The pest or weed control at 31 g/ha [9, 13] was 0%, the pest or weed control at 62 g/ha [9, 13] was 0% and the pest or weed control at 125 g/ha ([9]; pre-emergence, Preemergence, scale 0 to 100, read-out: Plant response rating, Cupgrass, Woolly) was 0%. The pest or weed control at 250 g/ha ([9]; pre-emergence, Preemergence, 250 g ai/ha, scale 0 to 100, read-out: Plant response rating, Cupgrass, Woolly) was 40%, the pest or weed control at 31 g/ha ([10]; post-emergence, Postemergence, read-out: Plant response rating (scale of 0 to 100), Morningglory) was 90% and the pest or weed control at 62 g/ha [10, 14] was 90%. The pest or weed control at 125 g/ha [10, 14] was 90%, the pest or weed control at 250 g/ha ([10]; post-emergence, Postemergence, scale 0 to 100, read-out: Plant response rating, Morningglory) was 90% and the pest or weed control at 31 g/ha [10, 15] was 0%. For the same molecule, the pest or weed control at 62 g/ha [10, 15] was 0%, the pest or weed control at 125 g/ha [10, 16] was 0% and the pest or weed control at 250 g/ha [10, 16] was 10%. For the same molecule, the pest or weed control at 31 g/ha ([11]; 31 g ai/ha, scale 0 to 100, 0 no effect, 100 complete control) was 5%, the pest or weed control at 62 g/ha ([11]; 62 g ai/ha, scale 0 to 100, 0 no effect, 100 complete control) was 85% and the pest or weed control at 125 g/ha ([11]; 125 g ai/ha, scale 0 to 100) was 85%. The pest or weed control at 250 g/ha ([11]; 250 g ai/ha, scale 0 to 100) was 95%.
